From article PMC8124774, “Tuning Anti-Biofilm Activity of Manganese(II) Complexes: Linking Biological Effectiveness of Heteroaromatic Complexes of Alcohol, Aldehyde, Ketone, and Carboxylic Acid with Structural Effects and Redox Activity” (International Journal of Molecular Sciences, 2021)
“And” between values parts separate entries of the source, which are not always exact repeats. Equal values may be shown once.

Tests used:
[1] = molecular target: T1, catalase from the bovine liver (Bos taurus, UniProt P00432); experiment: catalase activity in the presence of the Mn(II) complexes (absorbance at 240 nm); format: biochemical; details: 0.5 mM complex, vs catalase alone
T1 construct: The catalase from the bovine liver solution; purchased Sigma–Aldrich; host or cells: bovine liver
T1 sequence (P00432 2-527 limits assumed): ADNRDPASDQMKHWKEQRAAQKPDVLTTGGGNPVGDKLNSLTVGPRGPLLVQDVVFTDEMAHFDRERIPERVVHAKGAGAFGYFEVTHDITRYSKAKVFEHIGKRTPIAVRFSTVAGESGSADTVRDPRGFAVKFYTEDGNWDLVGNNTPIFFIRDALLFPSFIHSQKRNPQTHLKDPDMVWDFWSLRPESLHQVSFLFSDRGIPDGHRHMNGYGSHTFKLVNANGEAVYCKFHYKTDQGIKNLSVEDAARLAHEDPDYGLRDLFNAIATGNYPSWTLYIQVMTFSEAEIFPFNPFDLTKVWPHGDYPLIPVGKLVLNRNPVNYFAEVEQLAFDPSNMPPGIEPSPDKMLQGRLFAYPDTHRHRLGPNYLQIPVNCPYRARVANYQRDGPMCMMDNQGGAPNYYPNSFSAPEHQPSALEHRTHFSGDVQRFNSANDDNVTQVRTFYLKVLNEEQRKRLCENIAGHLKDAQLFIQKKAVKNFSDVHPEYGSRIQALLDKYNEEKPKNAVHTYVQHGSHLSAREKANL
Method: First, the complexes were incubated with the catalase in the presence of a phosphate buffer, and then hydrogen peroxide was added thereto. To study the effect of the manganese complexes on the activity of CAT, its performance, in the presence of similar concentrations of the Mn complexes (0.5 mM), was investigated. The percentage of absorbance reduction over time was recorded at 240 nm. The positive control was the catalase sample in the absence of the Mn(II) complex. Figure 12 illustrates the effect of the Mn(II) complexes on the catalase activity.
The effect of the manganese complexes on the activity of catalase (CAT) was determined using the spectrophotometric method. The decrease in absorbance due to hydrogen peroxide depletion was recorded at 240 nm by the V-780 UV-Vis/NIR spectrophotometer (Jasco, Easton, MD, USA). The tests were performed in a 50-mM potassium phosphate buffer (PBS) at 37 °C, pH = 7.0. The catalase from the bovine liver solution (Sigma–Aldrich, St. Louis, MO, USA, lyophilized powder, ≥10,000 units/mg protein) was prepared in the PBS buffer as an initial dilution of ~1000 units/mL at 37 °C. The hydrogen peroxide solution, approximately 0.03% (w/w), was prepared by dilution in the PBS buffer to achieve the absorbance close to 1 a.u, and the PBS was used as a blank. The manganese complexes were diluted in the PBS buffer to stock the concentration of 1 mM. The mixture of 500 µL of the hydrogen peroxide, 1 µL of the catalase (final 1U of catalase activity), and 500 µL of the manganese complexes, previously incubated in a water bath at 37 °C, was added to a quartz cuvette (10 mm, 1 mL), closed by a cover, and placed in the spectrophotometer. The absorbance readings were performed in 10-s intervals during the first minute of the incubation time at 37 °C. The results were presented as the dependence on the percentage of the absorbance reduction over time.

[2] = system: Staphylococcus aureus ATCC 6538P; experiment: broth microdilution MIC, S. aureus; format: cell-based; details: S. aureus, planktonic cells
Method: The antimicrobial activities of the heteroaromatic ligands, Mn(II) complexes, and commercially available drug streptomycin were tested against standard bacterial strains: Staphylococcus aureus ATCC 6538P, Escherichia coli ATCC 8739, Pseudomonas aeruginosa PAO1 (biofilm model strain), and Pseudomonas aeruginosa LES B58 (clinical isolate). The P. aeruginosa PAO1 and LES B58 isolates were derived from the International Pseudomonas aeruginosa Reference Panel (http://bccm.belspo.be/about-us/bccm-lmg, accessed on 30 March 2021).
All bacteria species were cultivated in trypticase soy broth (TSB) medium (Biocorp, Warsaw, Poland) for 18 h at 37 °C with shaking (160 rpm). Overnight cultures of bacteria were diluted 1:100 into fresh TSB medium and then placed in each of the 96 wells of a microtiter transparent plate (Greiner, Monroe, NC, USA). The manganese(II) complexes—[Mn-pyOH-SO4]n, Mn-imCHO-NO3, Mn-imCHO-Cl, Mn-dipyCO-NO3—and the ligands—pyOH, pyCOOH—were prepared by dissolving compounds in distilled water. […] The starting stock solution was of 2-mM concentration.
The quantitative assay of the antibacterial activity was performed by the broth microdilution method, in 96-well microtiter plates, in order to establish the minimum inhibitory concentration (MIC). To this purpose, serial two-fold dilutions of the compounds ranging between 1 and 0.0625 mM were made. The details of the experiment were presented in our previous paper.

Cc1[nH]cnc1C=O.Cc1[nH]cnc1C=O.O=[N+]([O-])[O-].O=[N+]([O-])[O-].[Mn+2] [Mn-imCHO-NO3]
Action on catalase activity [1]: promote the catalase activity

O=[N+]([O-])[O-].O=[N+]([O-])[O-].OCc1ccccn1.OCc1ccccn1.[Mn+2] [Mn-pyOH-NO3]
Action on catalase activity [1]: promote the catalase activity | MIC [2]: > 1 mM and > 397 μg/ml
